Molecules are shown by their SMILES.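 The compound was tested at five concentrations on cells cultured in 96-well plates, with a 48-hour exposure period. The concentration for 50% growth inhibition is given as GI50.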 The source made the active and inactive calls. No stated cut-off is given here; in the data, active = GI50 up to about 1.1 µM and inactive = higher.

Test systems include LXFL 529; RXF 631; DMS-273; KM-20L2; HOP-18; DLD-1; XF498; M19-MEL.
What all share (assay): NCI anticancer screen, dose series, 48 h

Turning to `O=C1C2=C(CC3C(C2)C3(Br)Br)C(=O)C2=C1CC1C(C2)C1(Br)Br` (stereo not given), the GI50 with LXFL 529, in the assay on RXF 631, in the assay on DMS-273, with KM-20L2, in the assay on HOP-18 and in the assay with DLD-1 was > 100 µM (inactive) in each case. The results for the GI50 in the assay with XF498 and in the assay with M19-MEL were > 100 µM (inactive) and 52.8 µM (inactive), respectively.
Regarding `O=C1C(=O)N(c2ccc(Cl)cc2Cl)C(=O)C(=O)C1c1nc2ccccc2o1`, the GI50 in the assay on LXFL 529, in the assay on RXF 631, in the assay with DMS-273, in the assay on KM-20L2, in the assay on HOP-18 and with DLD-1 was > 100 µM (inactive) throughout. The GI50 in the assay on XF498 and in the assay with M19-MEL was > 100 µM (inactive) throughout.
As to `CC1=C(c2cc(C(=O)Nc3ccc(Cl)cc3)nc(S)n2)Sc2ccccc2N1`, the GI50 in the assay with LXFL 529, with RXF 631, in the assay on DMS-273, in the assay on KM-20L2, in the assay with HOP-18 and in the assay with DLD-1 was > 100 µM (inactive) in each case. Further, the GI50 with XF498 and with M19-MEL was > 100 µM (inactive) throughout.
Take `COC(=O)c1cc(-c2ccc(OC)c(OC)c2)oc1-c1ccc(OC)c(OC)c1`: the GI50 in the assay with LXFL 529 is 27.7 µM (inactive); in the assay on RXF 631, 30.5 µM (inactive); with DMS-273, 67.1 µM (inactive); in the assay on KM-20L2, 53.3 µM (inactive); in the assay on HOP-18, 29.2 µM (inactive); with DLD-1, 30.1 µM (inactive). For the same molecule, the GI50 with XF498 is 37.3 µM (inactive); in the assay with M19-MEL, 41.3 µM (inactive).
With `CC1=NN(c2ccccc2)C(=O)C1/N=N/c1ccc(Br)c(C)c1` (stereo not given), the GI50 with LXFL 529 is > 100 µM (inactive); with RXF 631 it was > 100 µM (inactive); in the assay with DMS-273, > 100 µM (inactive); in the assay on KM-20L2, > 100 µM (inactive); with HOP-18, 0.0562 µM (active); in the assay with DLD-1, > 100 µM (inactive). Also, the GI50 with XF498 and in the assay with M19-MEL was > 100 µM (inactive) throughout.

(Values after ChEMBL document CHEMBL1201862, “PubChem BioAssay data set” (2004).)
